Values quoted from earlier work in paper PMC9227077, “Prediction Models for Brain Distribution of Drugs Based on Biomimetic Chromatographic Data” (Molecules, 2022).
Read-outs that look alike come from different tables or passages of the source.

What was measured:
[1] = set-up: method as in ref 23, 24, 27, 29, 45 (a number printed in a supplementary file, which may have a reference list of its own: not looked up in the article's list); details: 100% aqueous mobile phase, previously obtained in authors' laboratory, cited from earlier work
human serum albumin = system: human serum albumin; set-up: method as in ref 45 (a number printed in a supplementary file, which may have a reference list of its own: not looked up in the article's list); details: pH=7.4, isocratic, 10% acetonitrile; available for 37 compounds, remaining calculated by equation; cited from earlier work
[2] = experimental, cited from earlier work; for logP: octanol-water partition coefficient
[3] = cited from earlier work; for logBB exper.: literature Kp,brain converted to logBB; for Kp,brain: total brain/total plasma, preferably rat studies
[4] = most values in rats, average if more than one value; cited from earlier work

Compound	logkw IAM ([1]; pH=5.0, PBS)	logkw IAM ([1]; pH=7.4, PBS)	logk10,HSA (human serum albumin)	logD ([2]; pH=5.0, octanol-water)	logD ([2]; pH=7.4, octanol-water)	logBB exper. [3]	Kp,brain [3]	logP [2]	fu,brain [4]
CC(=O)Oc1ccccc1C(=O)O [Acetylsalicylic acid]	-0.48	-0.81	0.38	-0.29	-1.20	-0.5	0.32		
Nc1nc2c(ncn2COCCO)c(=O)[nH]1 [Acyclovir]	-1.37	-1.15		-1.56	-1.56			-1.56	
Cc1c(N(C)C)c(=O)n(-c2ccccc2)n1C [Aminopyrine]			-0.30			0.00	1.00		
CC(C)NCC(O)COc1ccc(CC(N)=O)cc1 (centres unmarked) [Atenolol]	-0.20	0.51							
CN1[C@@H]2CC[C@H]1C[C@@H](OC(=O)C(CO)c1ccccc1)C2 (some centres unmarked) [Atropine]		1.05							
CN1C(=O)CN=C(c2ccccc2)c2cc(Cl)ccc21 [Diazepam]	2.12	2.12							
O=C(CCCN1CCC(O)(c2ccc(Cl)cc2)CC1)c1ccc(F)cc1 [Haloperidol]	1.86	2.65	0.77						0.008
OCCOCCN1CCN(C(c2ccccc2)c2ccc(Cl)cc2)CC1 (centres unmarked) [Hydroxyzine]	2.23	3.01	0.60	0.73	3.01	0.39	2.45		0.013
CN(C)CCCN1c2ccccc2CCc2ccccc21 [Imipramine]	2.05	2.73				0.83	6.76		0.035
CNCCCC12CCC(c3ccccc31)c1ccccc12 [Maprotiline]	2.25	2.81	0.80	1.19	1.44	1.76	57.54	4.14	0.006
CN1CC[C@]23c4c5ccc(O)c4O[C@H]2[C@@H](O)C=C[C@H]3[C@H]1C5 [Morphine]	0.10	0.63							
COc1ccc2cc([C@H](C)C(=O)O)ccc2c1 [Naproxen]	1.71	0.98							
CC(C)=CCN1CCC2(C)c3cc(O)ccc3CC1C2C (centres unmarked) [Pentazocine]	1.70	2.06	1.09	1.24	4.02	0.545	3.51	4.64	
CC(C)NCC(O)COc1cccc2[nH]ccc12 (centres unmarked) [Pindolol]			-0.03	-1.15	-0.21	-0.14	0.72		0.400
NC(=O)CN1CCCC1=O [Piracetam]			-1.32	-1.54	-1.54		1.00		
CC(=O)[C@H]1CC[C@H]2[C@@H]3CCC4=CC(=O)CC[C@]4(C)[C@H]3CC[C@]12C [Progesterone]		3.06	0.84	3.89	3.48				0.046
CN1[C@@H]2C[C@@H](OC(=O)[C@H](CO)c3ccccc3)C[C@H]1[C@@H]1O[C@@H]12 [Scopolamine]	0.73	1.15							
CN1C(=O)C(O)N=C(c2ccccc2)c2cc(Cl)ccc21 (centres unmarked) [Temazapam]	1.76	1.76	0.28						
Cn1c(=O)c2[nH]cnc2n(C)c1=O [Theophylline]	-0.26	-0.08							
